In patent US12172990B2 (Constellation Pharmaceuticals, Inc., priority 2018, dated 2024):

Assays:
full length human TREX1 = full length human TREX1 (Homo sapiens (Human), UniProt Q9NSU2); assay: TREX1 Biochemical Assay (fluorescence assay measuring degradation of dsDNA substrate); settings: 150 pM TREX1, 60 nM dsDNA substrate, 25 minutes at room temperature
Protocol: Degradation of the dsDNA liberates free fluorophore to produce a fluorescent signal. Specifically, 7.5 μL of N-terminally His-Tev tagged full length human TREX1 (expressed in E. coli and purified in house) in reaction buffer (50 mM Tris (pH 7.4), 150 mM NaCl, 2 mM DTT, 0.1 mg/mL BSA, 0.01% (v/v) Tween-20 and 100 mM MgCl2 were added to a 384-well Black ProxiPlate Plus (Perkin Elmer) which already contained compound (150 nL) at varying concentrations as a 10 point dose-response in DMSO. To this was added 7.5 μL of dsDNA substrate (Strand A: 5′ TEX615/GCT AGG CAG 3′; Strand B: 5′ CTG CCT AGC/IAbRQSp (Integrated DNA Technologies)) in reaction buffer. Final concentrations were 150 pM TREX1, 60 nM dsDNA substrate in reaction buffer with 1.0% DMSO (v/v). After 25 minutes at room temperature, reactions were quenched by the addition of 5 μL of stop buffer (same as reaction buffer plus 200 mM EDTA). Final concentrations in the quenched reaction were 112.5 pM TREX1, 45 nM DNA and 50 mM EDTA in a volume of 20 μL. After a 5-minute incubation at room temperature, plates were read in a laser sourced Envision (Perkin-Elmer), measuring fluorescence at 615 nm following excitation w/570 nm light. IC50 values were calculated by comparing the measured fluorescence at 615 nm ratio relative to control wells pre-quenched w/stop buffer (100% inhibition) and no inhibitor (0% inhibition) controls as using non-linear least square four parameter fits and either Genedata or GraphPad Prism (GraphPad Software, Inc.).

[1] = biological target: human TREX2 (residues M44-A279) (Homo sapiens (Human), UniProt Q9BQ50); assay: TREX2 Biochemical Assay (fluorescence assay measuring degradation of dsDNA substrate); settings: 2.5 nM TREX2, 60 nM dsDNA substrate, 25 minutes at room temperature
human TREX2 (residues M44-A279), sequence (Q9BQ50 whole entry, the tested form may be a part): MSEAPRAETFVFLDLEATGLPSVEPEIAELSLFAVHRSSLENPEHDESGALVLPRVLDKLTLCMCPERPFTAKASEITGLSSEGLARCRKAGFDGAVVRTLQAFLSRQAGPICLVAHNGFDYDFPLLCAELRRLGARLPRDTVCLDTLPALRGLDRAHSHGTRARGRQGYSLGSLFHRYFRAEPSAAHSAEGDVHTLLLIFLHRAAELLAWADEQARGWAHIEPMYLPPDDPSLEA
Protocol: Degradation of the dsDNA liberates free fluorophore to produce a fluorescent signal. Specifically, 7.5 μL of N-terminally His-Tev tagged human TREX2 (residues M44-A279, expressed in E. coli and purified in house) in reaction buffer (50 mM Tris (pH 7.4), 150 mM NaCl, 2 mM DTT, 0.1 mg/mL BSA, 0.01% (v/v) Tween-20 and 100 mM MgCl2) was added to a 384-well Black ProxiPlate Plus (Perkin Elmer) which already contained compound (150 nL) at varying concentrations as a 10 point dose-response in DMSO. To this was added 7.5 μL of dsDNA substrate (Strand A: 5′ TEX615/GCT AGG CAG 3′; Strand B: 5′ CTG CCT AGC/IAbRQSp (IDT)) in reaction buffer. Final concentrations were 2.5 nM TREX2, 60 nM dsDNA substrate in reaction buffer with 1.0% DMSO (v/v). After 25 minutes at room temperature, reactions were quenched by the addition of 5 μL of stop buffer (same as reaction buffer plus 200 mM EDTA). Final concentrations in the quenched reaction mixture were […] TREX2, 45 nM DNA and 50 mM EDTA in a volume of 20 μL. After a 5-minute incubation at room temperature, plates were read in a laser sourced Envision (Perkin-Elmer), measuring fluorescence at 615 nm following excitation w/570 nm light. IC50 values were calculated by comparing the measured fluorescence at 615 nm ratio relative to control wells pre-quenched w/stop buffer (100% inhibition) and no inhibitor (0% inhibition) controls as using non-linear least square four parameter fits and either Genedata or GraphPad Prism (GraphPad Software, Inc.).

full length human TREX1, sequence (Q9NSU2 whole entry): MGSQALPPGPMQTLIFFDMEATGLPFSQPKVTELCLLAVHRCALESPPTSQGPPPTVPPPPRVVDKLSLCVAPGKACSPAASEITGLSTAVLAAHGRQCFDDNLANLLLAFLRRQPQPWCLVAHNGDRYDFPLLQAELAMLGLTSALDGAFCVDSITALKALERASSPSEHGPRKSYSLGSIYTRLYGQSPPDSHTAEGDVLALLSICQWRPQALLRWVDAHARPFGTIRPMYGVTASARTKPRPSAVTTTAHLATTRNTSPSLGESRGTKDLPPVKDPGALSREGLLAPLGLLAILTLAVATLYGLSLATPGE

| SMILES | IC50 (full length human TREX1) [µM] | IC50 [1] [µM] |
| --- | --- | --- |
| Cc1cc(Br)cc(-c2nc(C(=O)Nc3cnoc3)c(O)c(=O)n2C)c1 [Example 1, 2-(3-bromo-5-methylphenyl)-5-hydroxy-N-(isoxazol-4-yl)-1-methyl-6-oxo-1,6-dihydropyrimidine-4-carboxamide] | < 0.1 | 1 to 10 |
| Cn1c(C2CC2)nc(C(=O)Nc2cnoc2)c(O)c1=O [Example 3, 2-cyclopropyl-5-hydroxy-N-(isoxazol-4-yl)-1-methyl-6-oxo-1,6-dihydropyrimidine-4-carboxamide] | 0.1 to 1 | 10 to 100 |
| Cc1ccc(Br)cc1-c1nc(C(=O)Nc2cnoc2)c(O)c(=O)n1C [Example 4, 2-(5-bromo-2-methylphenyl)-5-hydroxy-N-(isoxazol-4-yl)-1-methyl-6-oxo-1,6-dihydropyrimidine-4-carboxamide] | 0.1 to 1 | 1 to 10 |
| Cc1c(Br)cccc1-c1nc(C(=O)Nc2cnoc2)c(O)c(=O)n1C [Example 5, 2-(3-bromo-2-methylphenyl)-5-hydroxy-N-(isoxazol-4-yl)-1-methyl-6-oxo-1,6-dihydropyrimidine-4-carboxamide] | < 0.1 | 1 to 10 |
| Cn1c(Cc2ccccc2)nc(C(=O)Nc2cnoc2)c(O)c1=O [Example 6, 2-benzyl-5-hydroxy-N-(isoxazol-4-yl)-1-methyl-6-oxo-1,6-dihydropyrimidine-4-carboxamide] | 0.1 to 1 | 10 to 100 |
| Cn1c(-c2ccccc2Br)nc(C(=O)Nc2cnoc2)c(O)c1=O [Example 9, 2-(2-bromophenyl)-5-hydroxy-N-(isoxazol-4-yl)-1-methyl-6-oxo-1,6-dihydropyrimidine-4-carboxamide] | 0.1 to 1 | 10 to 100 |
| Cn1c(C2CCN(C(=O)OC(C)(C)C)CC2)nc(C(=O)Nc2cnoc2)c(O)c1=O [Example 12, tert-butyl 4-(5-hydroxy-4-(isoxazol-4-ylcarbamoyl)-1-methyl-6-oxo-1,6-dihydropyrimidin-2-yl)piperidine-1-carboxylate] | 1 to 10 | 10 to 100 |
| Cn1c(C2CCCN(C(=O)OC(C)(C)C)C2)nc(C(=O)Nc2cnoc2)c(O)c1=O (centres unmarked) [Example 13, tert-butyl 3-(5-hydroxy-4-(isoxazol-4-ylcarbamoyl)-1-methyl-6-oxo-1,6-dihydropyrimidin-2-yl)piperidine-1-carboxylate] | 0.1 to 1 | 10 to 100 |
| Cn1c(-c2cccc(Br)c2OCCO)nc(C(=O)Nc2cnoc2)c(O)c1=O [Example 15, 2-(3-bromo-2-(2-hydroxyethoxy)phenyl)-5-hydroxy-N-(isoxazol-4-yl)-1-methyl-6-oxo-1,6-dihydropyrimidine-4-carboxamide] | < 0.1 | < 1 |
| Cn1c(CC2CCN(C(=O)OC(C)(C)C)CC2)nc(C(=O)Nc2cnoc2)c(O)c1=O [Example 17, tert-butyl 4-((5-hydroxy-4-(isoxazol-4-ylcarbamoyl)-1-methyl-6-oxo-1,6-dihydropyrimidin-2-yl)methyl)piperidine-1-carboxylate] | 1 to 10 | 10 to 100 |
| Cn1c(C2CCN2C(=O)OC(C)(C)C)nc(C(=O)Nc2cnoc2)c(O)c1=O (centres unmarked) [Example 22, tert-butyl 2-(5-hydroxy-4-(isoxazol-4-ylcarbamoyl)-1-methyl-6-oxo-1,6-dihydropyrimidin-2-yl)azetidine-1-carboxylate] | 1 to 10 | 10 to 100 |
| Cn1c(C(NC(=O)OCc2ccccc2)c2ccccc2)nc(C(=O)Nc2cnoc2)c(O)c1=O (centres unmarked) [Example 23, benzyl ((5-hydroxy-4-(isoxazol-4-ylcarbamoyl)-1-methyl-6-oxo-1,6-dihydropyrimidin-2-yl)(phenyl)methyl)carbamate] | 0.1 to 1 | 1 to 10 |

The next lines start with the values.

| IC50 (full length human TREX1) [µM] | IC50 [1] [µM] | SMILES |
| --- | --- | --- |
| 0.1 to 1 | 10 to 100 | Cn1c(C2CCC2)nc(C(=O)Nc2cnoc2)c(O)c1=O [Example 2, 2-cyclobutyl-5-hydroxy-N-(isoxazol-4-yl)-1-methyl-6-oxo-1,6-dihydropyrimidine-4-carboxamide] |
| 0.1 to 1 | 10 to 100 | Cn1c(C2(NC(=O)OCc3ccccc3)CC2)nc(C(=O)Nc2cnoc2)c(O)c1=O [Example 7, benzyl (1-(5-hydroxy-4-(isoxazol-4-ylcarbamoyl)-1-methyl-6-oxo-1,6-dihydropyrimidin-2-yl)cyclopropyl)carbamate] |
| 0.1 to 1 | 10 to 100 | Cn1c(-c2ccccc2)nc(C(=O)Nc2cnoc2)c(O)c1=O [Example 8, 5-hydroxy-N-(isoxazol-4-yl)-1-methyl-6-oxo-2-phenyl-1,6-dihydropyrimidine-4-carboxamide] |
| < 0.1 | 1 to 10 | Cn1c(-c2cccc(Br)c2)nc(C(=O)Nc2cnoc2)c(O)c1=O [Example 10, 2-(3-bromophenyl)-5-hydroxy-N-(isoxazol-4-yl)-1-methyl-6-oxo-1,6-dihydropyrimidine-4-carboxamide] |
| 0.1 to 1 | 10 to 100 | Cn1c(-c2ccc(Br)cc2)nc(C(=O)Nc2cnoc2)c(O)c1=O [Example 11, 2-(4-bromophenyl)-5-hydroxy-N-(isoxazol-4-yl)-1-methyl-6-oxo-1,6-dihydropyrimidine-4-carboxamide] |
| 0.1 to 1 | 1 to 10 | Cn1c(C2CCCCN2C(=O)OC(C)(C)C)nc(C(=O)Nc2cnoc2)c(O)c1=O (centres unmarked) [Example 14, tert-butyl 2-(5-hydroxy-4-(isoxazol-4-ylcarbamoyl)-1-methyl-6-oxo-1,6-dihydropyrimidin-2-yl)piperidine-1-carboxylate] |
| 0.1 to 1 | 10 to 100 | CC(C)(C)OC(=O)N1CCCC(c2nc(C(=O)Nc3cnoc3)c(O)c(=O)[nH]2)C1 (centres unmarked) [Example 16, tert-butyl 3-(5-hydroxy-4-(isoxazol-4-ylcarbamoyl)-6-oxo-1,6-dihydropyrimidin-2-yl)piperidine-1-carboxylate] |
| 0.1 to 1 | 10 to 100 | Cn1c(CC2CCCN(C(=O)OC(C)(C)C)C2)nc(C(=O)Nc2cnoc2)c(O)c1=O (centres unmarked) [Example 18, tert-butyl 3-((5-hydroxy-4-(isoxazol-4-ylcarbamoyl)-1-methyl-6-oxo-1,6-dihydropyrimidin-2-yl)methyl)piperidine-1-carboxylate] |
| 1 to 10 | > 100 | Cn1c(C2CN(C(=O)OC(C)(C)C)C2)nc(C(=O)Nc2cnoc2)c(O)c1=O [Example 19, tert-butyl 3-(5-hydroxy-4-(isoxazol-4-ylcarbamoyl)-1-methyl-6-oxo-1,6-dihydropyrimidin-2-yl)azetidine-1-carboxylate] |
| 0.1 to 1 | 10 to 100 | Cn1c(C2(c3ccccc3)CC2)nc(C(=O)Nc2cnoc2)c(O)c1=O [Example 20, 5-hydroxy-N-(isoxazol-4-yl)-1-methyl-6-oxo-2-(1-phenylcyclopropyl)-1,6-dihydropyrimidine-4-carboxamide] |
| 1 to 10 | > 100 | Cn1c(-c2ccncc2)nc(C(=O)Nc2cnoc2)c(O)c1=O [Example 21, 5-hydroxy-N-(isoxazol-4-yl)-1-methyl-6-oxo-2-(pyridin-4-yl)-1,6-dihydropyrimidine-4-carboxamide] |
| 0.1 to 1 | > 100 | Cn1c(C(NC(=O)OCc2ccccc2)c2ccc(Br)cc2)nc(C(=O)Nc2cnoc2)c(O)c1=O (centres unmarked) [Example 24, benzyl ((4-bromophenyl)(5-hydroxy-4-(isoxazol-4-ylcarbamoyl)-1-methyl-6-oxo-1,6-dihydropyrimidin-2-yl)methyl)carbamate] |
| 0.1 to 1 | 1 to 10 | Cc1cc(C)cc(-c2nc(C(=O)Nc3cnoc3)c(O)c(=O)n2C)c1 [Example 25, 2-(3,5-dimethylphenyl)-5-hydroxy-N-(isoxazol-4-yl)-1-methyl-6-oxo-1,6-dihydropyrimidine-4-carboxamide] |
